In PubChem BioAssay AID2060506 (Molecular Pharmacology Branch, DTP, NCI, 2025):

Test system: 598228-144-R-J1-PDC complex spheroid viability
Assay: Anticancer human tumor 598228-144-R-J1-PDC patient-derived serous endometrial adenocarcinoma cell line growth inhibition [GQUAD]
Conditions: for IC50: curve of first compound; for viability, T/C: stronger effect = lower value; active = viability on the fitted dose curve at most 10% of control; inactive = the rest
Summary of the method: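 Viability of tumor cells grown as complex spheroids with endothelial and stromal cells, exposed to drug combinations. Top concentration at or near clinical Cmax (else 10 microM), diluted in half-log increments.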

[1] = second compound 0.0316 µM, first compound 0.0316 µM
[2] = second compound 0.0316 µM, first compound 0.1 µM
[3] = second compound 0.0316 µM, first compound 0.316 µM
[4] = second compound 0.0316 µM, first compound 1 µM
[5] = second compound 0.0316 µM, first compound 3.16 µM
[6] = second compound 0.0316 µM, first compound 10 µM
[7] = second compound 0.1 µM, first compound 0.0316 µM
[8] = second compound 0.1 µM, first compound 0.1 µM
[9] = second compound 0.1 µM, first compound 0.316 µM
[10] = second compound 0.1 µM, first compound 1 µM
[11] = second compound 0.1 µM, first compound 3.16 µM
[12] = second compound 0.1 µM, first compound 10 µM
[13] = second compound 0.316 µM, first compound 0.0316 µM
[14] = second compound 0.316 µM, first compound 0.1 µM
[15] = second compound 0.316 µM, first compound 0.316 µM
[16] = second compound 0.316 µM, first compound 1 µM
[17] = second compound 0.316 µM, first compound 3.16 µM
[18] = second compound 0.316 µM, first compound 10 µM
[19] = second compound 1 µM, first compound 0.0316 µM
[20] = second compound 1 µM, first compound 0.1 µM
[21] = second compound 1 µM, first compound 0.316 µM
[22] = second compound 1 µM, first compound 1 µM
[23] = second compound 1 µM, first compound 3.16 µM
[24] = second compound 1 µM, first compound 10 µM
[25] = second compound 3.16 µM, first compound 0.0316 µM
[26] = second compound 3.16 µM, first compound 0.1 µM
[27] = second compound 3.16 µM, first compound 0.316 µM
[28] = second compound 3.16 µM, first compound 1 µM
[29] = second compound 3.16 µM, first compound 3.16 µM
[30] = second compound 3.16 µM, first compound 10 µM
[31] = second compound 10 µM, first compound 0.0316 µM
[32] = second compound 10 µM, first compound 0.1 µM
[33] = second compound 10 µM, first compound 0.316 µM
[34] = second compound 10 µM, first compound 1 µM
[35] = second compound 10 µM, first compound 3.16 µM
[36] = second compound 10 µM, first compound 10 µM
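Also: spheroids exposed to the agents for one week before reading.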
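For viability, T/C in this document: percent of vehicle DMSO control viability so 100% = untreated growth.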

COc1ccc([C@@H](O)c2cc(-c3ncnc4cc(N5CCOCC5)ccc34)c(F)cc2Cl)nn1 + Cc1cnc(CNC(=O)c2c(=O)c3ccc(N4CCCN(C)CC4)nc3n3c2sc2ccccc23)cn1
2.71 µM: IC50 (second compound 0.0316 µM)
0.794 µM: IC50 (second compound 1 µM)
inactive: viability, T/C [1] 105% | viability, T/C [2] 80.9% | viability, T/C [3] 66.6% | viability, T/C [4] 66.5% | viability, T/C [5] 52.3% | viability, T/C [6] 33.9% | viability, T/C [7] 67% | viability, T/C [8] 70.4% | viability, T/C [9] 64.3% | viability, T/C [10] 51.7% | viability, T/C [11] 43.5% | viability, T/C [12] 33% | viability, T/C [13] 63.2% | viability, T/C [14] 63.5% | viability, T/C [15] 62.7% | viability, T/C [16] 49.1% | viability, T/C [17] 35.3% | viability, T/C [18] 25.5% | viability, T/C [19] 65.9% | viability, T/C [20] 61.6% | viability, T/C [21] 51.6% | viability, T/C [22] 46.1% | viability, T/C [23] 42% | viability, T/C [24] 14.2% | viability, T/C [25] 50% | viability, T/C [26] 36.8% | viability, T/C [27] 41.9% | viability, T/C [28] 31.6% | viability, T/C [29] 20.9% | viability, T/C [31] 35.2% | viability, T/C [32] 40.2% | viability, T/C [33] 19.1%
1.04 µM: IC50 (second compound 0.316 µM)
active: viability, T/C [30] 0.39% | viability, T/C [34] 0.71% | viability, T/C [35] 0.33% | viability, T/C [36] 0.26%
< 0.0316 µM: IC50 (second compound 3.16 µM) | IC50 (second compound 10 µM)
1.44 µM: IC50 (second compound 0.1 µM)

C#Cc1c(F)ccc2cc(O)cc(-c3ncc4c(N5CC6CCC(C5)N6)nc(OCC56CCCN5CC(F)C6)nc4c3F)c12 (stereo unspecified) + Cc1[nH]c2ccc(F)cc2c1-c1nc2c3cccnc3c3ncccc3c2[nH]1
> 10 µM: IC50 (second compound 0.0316 µM) | IC50 (second compound 0.1 µM) | IC50 (second compound 0.316 µM) | IC50 (second compound 1 µM) | IC50 (second compound 10 µM)
inactive: viability, T/C [1] 124% | viability, T/C [2] 88.7% | viability, T/C [3] 120% | viability, T/C [4] 100% | viability, T/C [5] 114% | viability, T/C [6] 111% | viability, T/C [7] 121% | viability, T/C [8] 126% | viability, T/C [9] 97.2% | viability, T/C [10] 107% | viability, T/C [11] 143% | viability, T/C [12] 130% | viability, T/C [13] 93.7% | viability, T/C [14] 87.4% | viability, T/C [15] 87.9% | viability, T/C [16] 102% | viability, T/C [17] 115% | viability, T/C [18] 98.7% | viability, T/C [19] 74.7% | viability, T/C [20] 59.1% | viability, T/C [21] 54.3% | viability, T/C [22] 59.7% | viability, T/C [23] 71.9% | viability, T/C [24] 62% | viability, T/C [25] 37% | viability, T/C [26] 51.8% | viability, T/C [27] 44.6% | viability, T/C [28] 40.2% | viability, T/C [29] 44.2% | viability, T/C [30] 31.9% | viability, T/C [31] 69.2% | viability, T/C [32] 62.3% | viability, T/C [33] 64.3% | viability, T/C [34] 58.3% | viability, T/C [35] 60% | viability, T/C [36] 52.8%
< 0.0316 µM: IC50 (second compound 3.16 µM)

C=CCn1c(=O)c2cnc(Nc3ccc(N4CCN(C)CC4)cc3)nc2n1-c1cccc(C(C)(C)O)n1 + Cc1cnc(CNC(=O)c2c(=O)c3ccc(N4CCCN(C)CC4)nc3n3c2sc2ccccc23)cn1
active: viability, T/C [35] 0.58% | viability, T/C [36] 21.5%
10 µM: IC50 (second compound 0.0316 µM)
inactive: viability, T/C [1] 76% | viability, T/C [2] 95% | viability, T/C [3] 61.1% | viability, T/C [4] 44.1% | viability, T/C [5] 45.2% | viability, T/C [6] 61.6% | viability, T/C [7] 82.7% | viability, T/C [8] 74.3% | viability, T/C [9] 51.7% | viability, T/C [10] 45.5% | viability, T/C [11] 43.7% | viability, T/C [12] 38% | viability, T/C [13] 71.4% | viability, T/C [14] 74.5% | viability, T/C [15] 65.9% | viability, T/C [16] 52.5% | viability, T/C [17] 40.6% | viability, T/C [18] 42.6% | viability, T/C [19] 86.5% | viability, T/C [20] 55.4% | viability, T/C [21] 55.3% | viability, T/C [22] 60.3% | viability, T/C [23] 41.6% | viability, T/C [24] 39.8% | viability, T/C [25] 50.8% | viability, T/C [26] 47.6% | viability, T/C [27] 42.3% | viability, T/C [28] 41% | viability, T/C [29] 52.5% | viability, T/C [30] 41.1% | viability, T/C [31] 24.5% | viability, T/C [32] 42.1% | viability, T/C [33] 19.2% | viability, T/C [34] 0.53%
1.22 µM: IC50 (second compound 0.316 µM)
< 0.0316 µM: IC50 (second compound 3.16 µM) | IC50 (second compound 10 µM)
0.655 µM: IC50 (second compound 1 µM)
0.445 µM: IC50 (second compound 0.1 µM)
